Experimental data: patent US20100113465A1, “7-AZASPIRO[3.5]NONANE-7-CARBOXAMIDE COMPOUNDS” (Pfizer Inc., priority 2008, published 2010)

Assays:
human FAAH = molecular target: T1, human FAAH (Homo sapiens, UniProt O00519); assay: FAAH assay, human FAAH enzyme inhibition (kinact/Ki); assay type: biochemical; conditions: oleamide substrate 50 μM, 30° C.; for kinact/KI: read-out: hFAAH kinact/Ki
T1 construct: made in house; host or cells: E. coli
T1 sequence (O00519 1-579): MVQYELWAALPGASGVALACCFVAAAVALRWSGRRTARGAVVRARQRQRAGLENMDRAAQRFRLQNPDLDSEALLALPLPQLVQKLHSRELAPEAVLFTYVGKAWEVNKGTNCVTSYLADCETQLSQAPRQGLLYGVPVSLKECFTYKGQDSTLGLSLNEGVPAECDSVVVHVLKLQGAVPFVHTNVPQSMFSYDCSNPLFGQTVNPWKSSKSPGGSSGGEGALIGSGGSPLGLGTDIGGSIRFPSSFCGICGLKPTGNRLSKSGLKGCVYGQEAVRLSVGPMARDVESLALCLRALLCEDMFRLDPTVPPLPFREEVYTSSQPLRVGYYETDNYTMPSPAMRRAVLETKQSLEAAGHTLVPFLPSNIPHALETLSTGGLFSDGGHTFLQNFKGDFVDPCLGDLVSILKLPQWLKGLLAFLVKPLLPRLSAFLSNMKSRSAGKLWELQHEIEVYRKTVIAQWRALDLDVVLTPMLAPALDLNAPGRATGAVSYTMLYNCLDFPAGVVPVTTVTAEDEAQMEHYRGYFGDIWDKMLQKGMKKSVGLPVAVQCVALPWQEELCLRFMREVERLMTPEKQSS
Description: (§1) The FAAH assay was carried out in 384-well clear polystyrene plates (Evergreen Scientific) in a total volume of 50 μl per well in a manner similar to that described by Mileni et al., Proc. Nat. Acad. Sci. 2008, 105, 12820-12824. All percents are by volume. Serial dilutions of compound were initially prepared in 100% DMSO, and then diluted two-fold into HPLC-grade H2O to give 50% DMSO. To each well, was placed the reaction mixture (40 μl) containing 1-4 nM FAAH, 50 mM NaPi, pH 7.4, 3 mM α-ketoglutarate, 0.15 mM NADH, 7.5 U/ml glutamate dehydrogenase, 2 mM ADP, 1 mM EDTA, and 0.1% Triton X-100 (The concentration shown for each component is the final concentration in the assay). To this mixture, was added 5 μl of a compound of Examples 1 to 56 at various concentrations in 50% DMSO (or 5 μl 50% DMSO for controls). This was immediately followed by the addition of 5 μl oleamide (500 μM) dissolved in 75% EtOH/25% DMSO and the reaction mixture was mixed for 1.5 min. The final concentrations of DMSO and EtOH in the assay were each 7.5%. The reactions were incubated at 30° C. and the absorbance at 340 nm was collected over a period of 90 min with readings taken in 30-second intervals using SpectraMax Plus^384 Microplate Spectrophotometer (Molecular Devices, Sunnyvale, Calif.). The human FAAH and rat FAAH used in the assay was prepared as described in the patent application WO 2006/067613 using wild-type E. coli cells transformed in St. Louis, Mo., U.S.A. The purity of the enzyme was greater than 98% based on an analysis by SDS-polyacrylamide gel electrophoresis followed by Coomassie Blue staining.
(§2) Reaction progress curves were corrected for the non-enzymatic oxidation of NADH by subtraction of absorbancies at each time point obtained from control reactions containing no FAAH enzyme. The loss of enzyme activity as a function of time is well-described by the following mathematical equation (1) for a mono-exponential decay: […]
(§3) where At represents the absorbance at time t, A0 represents the absorbance at time zero, and C represents a constant. Observed rates of enzyme inactivation (kobs) were determined from the non-linear reaction progress curves by fitting the corrected absorbancies to an equation for a mono-exponential decay using the third-party Microsoft Excel plug-in, XLfit (IDBS Limited). Secondary plots of kobs vs. inhibitor concentration were prepared from kobs values obtained from progress curves. Second-order rates for enzyme inactivation, expressed as kinact/Ki (M^−1s^−1), were calculated from the slopes from linear regression analysis of the secondary plot of kobs vs. inhibitor concentration as defined in following equation (2), where [I]<<Ki:
(§4) The concentration of substrate in the assay was equal to the Km for oleamide of 50 μM. Therefore, reported kinact/Ki values are obtained by multiplying resulting slopes by a factor of two (i.e. slope=kinact/(Ki*2)).

rat FAAH = molecular target: T2, rat FAAH (Rattus norvegicus, UniProt P97612); assay: FAAH assay, rat FAAH enzyme inhibition (kinact/Ki); assay type: biochemical; conditions: oleamide substrate 50 μM, 30° C.; for kinact/KI: read-out: rFAAH kinact/Ki
T2 construct: made in house; host or cells: E. coli
T2 sequence (P97612 1-579): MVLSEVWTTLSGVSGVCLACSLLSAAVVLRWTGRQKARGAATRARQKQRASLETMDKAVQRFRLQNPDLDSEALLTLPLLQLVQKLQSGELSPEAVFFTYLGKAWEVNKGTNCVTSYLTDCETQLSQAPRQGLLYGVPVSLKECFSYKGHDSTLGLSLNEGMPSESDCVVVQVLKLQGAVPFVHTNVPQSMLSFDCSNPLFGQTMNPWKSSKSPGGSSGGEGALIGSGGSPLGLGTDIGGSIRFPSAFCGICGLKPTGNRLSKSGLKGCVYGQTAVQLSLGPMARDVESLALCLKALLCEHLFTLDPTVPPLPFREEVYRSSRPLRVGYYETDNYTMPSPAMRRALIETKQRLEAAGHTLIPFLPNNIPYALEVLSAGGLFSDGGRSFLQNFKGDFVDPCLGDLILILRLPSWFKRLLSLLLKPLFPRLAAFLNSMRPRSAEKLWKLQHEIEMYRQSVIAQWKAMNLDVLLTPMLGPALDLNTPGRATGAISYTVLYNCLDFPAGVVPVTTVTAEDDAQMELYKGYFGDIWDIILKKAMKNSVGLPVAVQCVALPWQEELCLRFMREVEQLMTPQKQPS
Description: as §1, §2, §3, §4

| SMILES | kinact/KI (human FAAH) [M⁻¹ s⁻¹] | kinact/KI (rat FAAH) [M⁻¹ s⁻¹] | hFAAH kinact/Ki (human FAAH) [M⁻¹ s⁻¹] | rFAAH kinact/Ki (rat FAAH) [M⁻¹ s⁻¹] |
| --- | --- | --- | --- | --- |
| Cc1noc(NC(=O)N2CCC3(CC(c4ccc(F)c(Cl)c4)C3)C(C)C2)c1C (centres unmarked) [Example 42, 2-(3-chloro-4-fluorophenyl)-N-(3,4-dimethylisoxazol-5-yl)-5-methyl-7-azaspiro[3.5]nonane-7-carboxamide] | 991 | 1360 |  |  |
| Cc1noc(NC(=O)N2CCC3(CC2)CC(c2ccc(F)c(Cl)c2)C3C)c1C (centres unmarked) [Example 41, 2-(3-chloro-4-fluorophenyl)-N-(3,4-dimethylisoxazol-5-yl)-1-methyl-7-azaspiro[3.5]nonane-7-carboxamide] | 354 | 405 |  |  |
| Cc1cccc(C2CC3(CCN(C(=O)Nc4nnnn4C)CC3)C2)c1 [Example 16, 2-(3-methylphenyl)-N-(1-methyl-1H-tetrazol-5-yl)-7-azaspiro[3.5]nonane-7-carboxamide] | 9660 | 3200 |  |  |
| Cc1cccc(C2CC3(CCN(C(=O)Nc4nnc(-c5ccccc5)nn4)CC3)C2)c1 [Example 17, 2-(3-methylphenyl)-N-(6-phenyl-1,2,4,5-tetrazin-3-yl)-7-azaspiro[3.5]nonane-7-carboxamide] | 2460 | 3940 |  |  |
| Cc1noc(NC(=O)N2CCC3(CC2)CC(c2csc(-c4cccc(F)c4)n2)C3)c1C [Example 37, N-(3,4-dimethylisoxazol-5-yl)-2-[2-(3-fluorophenyl)-1,3-thiazol-4-yl]-7-azaspiro[3.5]nonane-7-carboxamide] | 1900 | 1980 |  |  |
| Cc1noc(NC(=O)N2CCC3(CC2)CC(c2ccc(Cl)c(F)c2)C3)c1C [Example 39, 2-(4-chloro-3-fluorophenyl)-N-(3,4-dimethylisoxazol-5-yl)-7-azaspiro[3.5]nonane-7-carboxamide] | 2670 | 4120 |  |  |
| Cc1noc(NC(=O)N2CCC3(CC(c4ccc(F)c(Cl)c4)C3)C(C)C2)c1C (single isomer, unassigned) [Example 42d, 2-(3-chloro-4-fluorophenyl)-N-(3,4-dimethylisoxazol-5-yl)-5-methyl-7-azaspiro[3.5]nonane-7-carboxamide] |  |  | 1100 | 860 |
| Cn1nnnc1NC(=O)N1CCC2(CC1)CC(c1cccc3c1OC(F)(F)O3)C2 [Example 55, 2-(2,2-difluoro-1,3-benzodioxol-4-yl)-N-(1-methyl-1H-tetrazol-5-yl)-7-azaspiro[3.5]nonane-7-carboxamide] | 10200 | 2040 |  |  |
| Cc1noc(NC(=O)N2CCC3(CC2)CC(c2nc(-c4ccc(OC(F)(F)F)cc4)cs2)C3)c1C [Example 38, N-(3,4-dimethylisoxazol-5-yl)-2-{4-[4-(trifluoromethoxy)phenyl]-1,3-thiazol-2-yl}-7-azaspiro[3.5]nonane-7-carboxamide] | 3720 | 756 |  |  |
| Cc1nnc(NC(=O)N2CCC3(CC2)CC(c2cccc(OC(F)(F)F)c2)C3)o1 [Example 35, N-(5-methyl-1,3,4-oxadiazol-2-yl)-2-[3-(trifluoromethoxy)phenyl]-7-azaspiro[3.5]nonane-7-carboxamide] | 1530 | 2460 |  |  |
| Cc1noc(NC(=O)N2CCC3(CC(c4ccc(F)c(Cl)c4)C3)C(C)C2)c1C (single isomer, unassigned) [Example 42b, 2-(3-chloro-4-fluorophenyl)-N-(3,4-dimethylisoxazol-5-yl)-5-methyl-7-azaspiro[3.5]nonane-7-carboxamide] |  |  | 37.1 | 49.4 |
| COC1(c2ccc(F)c(Cl)c2)CC2(CCN(C(=O)Nc3onc(C)c3C)CC2)C1 [Example 43, 2-(3-chloro-4-fluorophenyl)-N-(3,4-dimethylisoxazol-5-yl)-2-methoxy-7-azaspiro[3.5]nonane-7-carboxamide] | 494 | 247 |  |  |
| Cc1noc(NC(=O)N2CCC3(CC2)CC(c2ccc(OCc4ccc(F)cc4)cc2)C3)c1C [Example 40, N-(3,4-dimethylisoxazol-5-yl)-2-{4-[(4-fluorobenzyl)oxy]phenyl}-7-azaspiro[3.5]nonane-7-carboxamide] | 3050 | 1540 |  |  |
| Cc1noc(NC(=O)N2CCC3(CC2)CC(c2cccc(Oc4ccc(Br)cn4)c2)C3)c1C [Example 11, 2-{3-[(5-bromopyridin-2-yl)oxy]phenyl}-N-(3,4-dimethylisoxazol-5-yl)-7-azaspiro[3.5]nonane-7-carboxamide] | 2340 | 9990 |  |  |
| Cc1noc(NC(=O)N2CCC3(CC2)CC(c2cccc(-c4cccc(F)c4)c2)C3)c1C [Example 31, N-(3,4-dimethylisoxazol-5-yl)-2-(3′-fluorobiphenyl-3-yl)-7-azaspiro[3.5]nonane-7-carboxamide] | 1100 | 656 |  |  |
| CCn1nnnc1NC(=O)N1CCC2(CC1)CC(c1cccc(OC(F)(F)F)c1)C2 [Example 52, N-(1-ethyl-1H-tetrazol-5-yl)-2-[3-(trifluoromethoxy)phenyl]-7-azaspiro[3.5]nonane-7-carboxamide] | 6940 | 3420 |  |  |
| Cc1noc(NC(=O)N2CCC3(CC2)CC(O)(c2ccc(F)c(Cl)c2)C3)c1C [Example 44, 2-(3-chloro-4-fluorophenyl)-N-(3,4-dimethylisoxazol-5-yl)-2-hydroxy-7-azaspiro[3.5]nonane-7-carboxamide] | 945 | 1340 |  |  |
| Cc1noc(NC(=O)N2CCC3(CC(c4ccc(F)c(Cl)c4)C3)C(C)C2)c1C (single isomer, unassigned) [Example 42c, 2-(3-chloro-4-fluorophenyl)-N-(3,4-dimethylisoxazol-5-yl)-5-methyl-7-azaspiro[3.5]nonane-7-carboxamide] |  |  | 2760 | 3530 |
| Cc1noc(NC(=O)N2CCC3(CC(c4ccc(F)c(Cl)c4)C3)C(C)C2)c1C (single isomer, unassigned) [Example 42a, 2-(3-chloro-4-fluorophenyl)-N-(3,4-dimethylisoxazol-5-yl)-5-methyl-7-azaspiro[3.5]nonane-7-carboxamide] |  |  | 1550 | 3040 |
